From patent US10487116B2, “Immunotherapy against several tumors, such as lung cancer, including NSCLC” (IMMATICS BIOTECHNOLOGIES GMBH, priority 2013, dated 2019)

What was measured:
[1] = test system: colon carcinoma cells HCT-15; details: Wang et al., 2009a; cited from earlier work
[2] = test system: lung cancer cells NCI-H460; details: Wang et al., 2009a; cited from earlier work
[3] = test system: colon carcinoma cells HCT-8; details: Wang et al., 2009a; cited from earlier work
[4] = test system: prostate cancer cells; details: Beckers et al., 2007; cited from earlier work
[5] = target: T1, HLA-DR2 (Homo sapiens, UniProt P01903+P01911); assay: ProImmune REVEAL MHC-peptide binding assay; details: compared to the positive control peptide, time 0
T1 construct: purchased ProImmune
Protocol: (§1) The ProImmune REVEAL® MHC-peptide binding assay determines the ability of each candidate peptide to bind to the selected HLA class II haplotype and stabilize the HLA-peptide complex. Thereby the candidate peptides are assembled in vitro with a particular HLA class II protein. The level of peptide incorporation into HLA molecules is measured by presence or absence of the native conformation of the assembled HLA-peptide complex at time 0 after completed refolding procedure (so called on-rate).
(§2) The binding capacity of candidate peptide to a particular HLA molecule is compared to the one with known very strong binding properties (positive control) resulting in the corresponding REVEAL® […] binding score. The positive control peptide is selected and provided by ProImmune based on their experience individually for each HLA haplotype.

[6] = test system: HLA-DR4; assay: ProImmune REVEAL MHC-peptide binding assay; parameters: species or system human; details: compared to the positive control peptide, time 0
Protocol: as §1, §2

[7] = test system: HLA-DR5; assay: ProImmune REVEAL MHC-peptide binding assay; parameters: species or system human; details: compared to the positive control peptide, time 0
Protocol: as §1, §2

[8] = test system: HLA-DR1; assay: ProImmune REVEAL MHC-peptide binding assay; parameters: species or system human; details: compared to the positive control peptide, time 0
Protocol: as §1, §2

[9] = test system: HLA-DR7; assay: ProImmune REVEAL MHC-peptide binding assay; parameters: species or system human; details: compared to the positive control peptide, time 0
Protocol: as §1, §2

[10] = test system: CD4 T-cells; assay: Intracellular cytokine staining (ICS) of CD4 T-cells in blood samples of vaccinated patients; format: in vivo, human; details: vaccination with IMA950 peptides, 16 patients
Protocol: A conclusion on the immugenicity of a peptide based on its binding capacity to a HLA molecule can be made by comparing the binding score of this peptide to the one with known immunogenicity. Therefore, five well investigated peptides with determined immunogenicity were selected for this comparison. The immunogenicity of these peptides was determined ex vivo in blood samples of vaccinated patients using intracellular cytokine staining (ICS) CD4 T-cells.
In principle, ICS assays analyze the quality of specific T cells in terms of effector functions. Therefore, the peripheral mononuclear cells (PBMCs) were cultivated in vitro and subsequently restimulated by the peptide of interest, a reference peptide and a negative control (here MOCK).
Following the restimulated cells were stained for FN-gamma, TNF-alpha, IL-2 and IL-10 production, as well as expression of the co-stimulatory molecule CD154. The counting of affected cells was performed on a flow cytometer (FIG. 7).

[11] = test system: HLA-DR haplotypes; assay: Stability of the formed HLA-peptide complexes (REVEAL assay, 24 h at 37° C.); format: binding, human; details: after 24 h at 37° C.; of 6 investigated HLA-peptide complexes
Protocol: Besides the affinity of a peptide to a particular HLA molecule, the enduring stability of the formed HLA-peptide complex is crucial for the occurrence of an immune response. Accordingly presence of the formed HLA-peptide complex is measured after its incubation for 24 h at 37° C. Consequently the stability of the formed MHC-peptide complex is calculated as a ration of the binding scores at 24 h and the binding scores which are received right after the refolding (accordingly at time 0) in percent.

[12] = test system: HLA-DR haplotypes; assay: ProImmune REVEAL MHC-peptide binding assay, all investigated haplotypes; parameters: species or system human; details: of 7 investigated HLA haplotypes
Excerpt: The 7 investigated HLA-DR haplotypes are selected according to their frequencies in HLA-A*02 and HLA-A*24 positive North Americans population (Table 7.1 and 7.2)
as §1, §2

[13] = test system: HLA-DR3; assay: ProImmune REVEAL MHC-peptide binding assay; parameters: species or system human
Protocol: as §1, §2

[14] = test system: HLA-DR6; assay: ProImmune REVEAL MHC-peptide binding assay; parameters: species or system human
Protocol: as §1, §2

[15] = target: HLA-A*0201 (Homo sapiens, UniProt P04439, D140Y/D185E/D98H/E176V/E277Q/G131W/G231S/I119V/I121R/I166T/I218V/L300P/L318F/N151K/N90K/P208A/P217A/Q86G/Q94H/R138H/R169H/T345S); assay: UV-ligand exchange with ELISA of stabilized MHC complexes; format: binding; details: class symbol
Excerpt: Candidate peptides for the vaccines according to the present invention were further tested for immunogenicity by in vitro priming assays. The individual peptide-MHC complexes required for these assays were produced by UV-ligand exchange, where a UV-sensitive peptide is cleaved upon UV-irradiation, and exchanged with the peptide of interest as analyzed. Only peptide candidates that can effectively bind and stabilize the peptide-receptive MHC molecules prevent dissociation of the MHC complexes. To determine the yield of the exchange reaction, an ELISA was performed based on the detection of the light chain (β2m) of stabilized MHC complexes. The assay was performed as generally described in Rodenko et al. (Rodenko B, Toebes M, Hadrup S R, van Esch W J, Molenaar A M, Schumacher T N, Ovaa H. Generation of peptide-MHC class I complexes through UV-mediated ligand exchange. Nat Protoc. 2006; 1(3):1120-32.).
96 well MAXISorp plates (NUNC) were coated over night with 2 ug/ml streptavidin in PBS at room temperature, washed 4× and blocked for 30 min at 37° C. in 2% BSA containing blocking buffer. Refolded HLA-A*0201/MLA-001 monomers served as standards, covering the range of 8-500 ng/ml. Peptide-MHC monomers of the UV-exchange reaction were diluted 100 fold in blocking buffer. Samples were incubated for 1 h at 37° C., washed four times, incubated with 2 ug/ml HRP conjugated anti-β2m for 1 h at 37° C., washed again and detected with TMB solution that is stopped with […]. Absorption was measured at 450 nm.

T1 sequence (P01903 26-254): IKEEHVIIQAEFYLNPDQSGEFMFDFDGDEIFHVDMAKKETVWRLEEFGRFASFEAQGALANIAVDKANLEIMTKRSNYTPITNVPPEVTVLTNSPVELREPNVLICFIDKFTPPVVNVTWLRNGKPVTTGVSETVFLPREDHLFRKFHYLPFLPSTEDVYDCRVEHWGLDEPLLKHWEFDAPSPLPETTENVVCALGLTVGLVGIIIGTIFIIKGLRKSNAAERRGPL
T1 sequence (P01911 30-227 limits assumed): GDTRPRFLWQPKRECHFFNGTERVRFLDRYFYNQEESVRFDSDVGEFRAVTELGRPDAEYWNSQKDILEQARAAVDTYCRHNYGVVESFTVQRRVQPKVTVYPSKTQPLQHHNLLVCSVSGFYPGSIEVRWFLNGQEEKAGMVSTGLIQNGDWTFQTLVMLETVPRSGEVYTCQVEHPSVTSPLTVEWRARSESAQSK

| Compound | Relative Binding Score HLA-DR2 [5] | Relative Binding Score HLA-DR4 [6] | Relative Binding Score HLA-DR5 [7] | Relative Binding Score HLA-DR1 [8] | Relative Binding Score HLA-DR7 [9] | Exchange yield [15] | also measured |
| --- | --- | --- | --- | --- | --- | --- | --- |
| CCCCCCCCCCCCCCOc1ccc(C(=O)O)o1 [TOFA, 5-tetradecyloxy-2-furoic acid] | – | – | – | – | – | – | cytotoxicity [1]: cytotoxic; cytotoxicity [2]: cytotoxic; cytotoxicity [3]: cytotoxic |
| CO[C@H]1CCCC[C@@H](c2ccccc2)OC(=O)[C@@H](C)[C@@]2(O)O[C@H]([C@@H](C)[C@H](O)[C@H]2OC)[C@@H](C)/C=C/[C@H]1OC [soraphen A] | – | – | – | – | – | – | fatty acid oxidation [4]: enhances fatty acid oxidation; lipogenesis [4]: blocks lipogenesis |
| BIR-002: class II peptide with known immunogenicity, IMA950 peptide (TLGEFLKLDRERAKN) [reference compound] | 0.05 | 6.12 | 103.9 | 40.06 | 0.27 | – | immune response [10]: 100% |
| INNYTPDMNREDVDYAIR (listed as Homo sapiens) [SEQ ID NO 76] | 2.43 | 0.74 | 0.04 | 0.04 | 0 | – | HLA-peptide complexes stable [11]: 2; HLA haplotypes with which a complex is formed [12]: 4; binding to HLA-DR3 [13]: did not bind; binding to HLA-DR6 [14]: did not bind |
| MET-005: class II peptide with known immunogenicity, IMA950 peptide (TFSYVDPVITSISPKYG) [reference compound] | 0.28 | 5.89 | 0.12 | 0.87 | 3.69 | – | immune response [10]: 100% |
| TNGVIHVVDKLLYPADT (listed as Homo sapiens) [SEQ ID NO 77] | 0.68 | 0.02 | 0.08 | 0.24 | 0.47 | – | HLA-peptide complexes stable [11]: 3; HLA haplotypes with which a complex is formed [12]: 5; binding to HLA-DR3 [13]: did not bind; binding to HLA-DR6 [14]: did not bind |
| VVDKTLLLV (listed as Homo sapiens) [SEQ ID NO 60] | – | – | – | – | – | ++ (20%-49% = ++) | – |
| YLAPFLRNV (listed as Homo sapiens) [SEQ ID NO 51] | – | – | – | – | – | +++ (50%-70%, +++) | – |
| YLIHFPVSV (listed as Homo sapiens) [SEQ ID NO 13] | – | – | – | – | – | + (<20% = +) | – |
| YLPHAPPFA (listed as Homo sapiens) [SEQ ID NO 53] | – | – | – | – | – | +++ (50%-70%, +++) | – |
| YVYQNNIYL (listed as Homo sapiens) [SEQ ID NO 68] | – | – | – | – | – | ++ (20%-49% = ++) | – |
